{"source": "paper PMC11230492", "about": "“Targeting Unique Ligand Binding Domain Structural Features Downregulates DKK1 in Y537S ESR1 Mutant Breast Cancer Cells” (Research Square, 2024)", "target": "T1, estrogen receptor alpha (ERα) ligand binding domain (Homo sapiens, UniProt P03372, C381S/C417S/C530S/Y537S)", "T1 construct": "gene ESR1", "T1 sequence (P03372 300-550 C381S/C417S/C530S/Y537S)": "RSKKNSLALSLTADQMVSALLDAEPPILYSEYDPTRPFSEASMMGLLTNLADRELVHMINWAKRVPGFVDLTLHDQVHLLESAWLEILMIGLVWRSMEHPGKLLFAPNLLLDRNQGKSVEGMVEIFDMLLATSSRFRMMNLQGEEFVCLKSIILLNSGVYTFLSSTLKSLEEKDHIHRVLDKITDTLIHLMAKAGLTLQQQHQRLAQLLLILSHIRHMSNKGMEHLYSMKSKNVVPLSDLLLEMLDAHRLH", "test": "X-ray co-crystal structure, […] Å"}
{"molecule": "O=C(c1ccccc1)N1C(c2ccc(OCC3CCN(CCCF)C3)cc2)c2ccc(O)cc2CC12CC2", "note": "(stereo not shown) [T6I-29]", "values": [{"measurement": "X-ray co-crystal structure, 2.20 Å", "result": "we solved an x-ray co-crystal structure of T6I-29 in complex with Y537S ERα LBD"}]}
